Assay results reported in ChEMBL document CHEMBL1201862, “PubChem BioAssay data set” (2004).
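Test compounds were applied to cells in 96-well plates for 48 hours at 5 doses. GI50: concentration for 50% inhibition of growth.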 Calls of active or inactive are those of the source. Rule as the data show it: active = GI50 up to about 1.1 µM and inactive = higher.

How the values were obtained:
Test in all cases: growth of human tumour cells (NCI), 48 h
[1] = test system: SN12C
[2] = test system: NCI-H23
[3] = test system: EKVX
[4] = test system: UACC-257
[5] = test system: ACHN
[6] = test system: SW-620
[7] = test system: MDA-N
[8] = test system: SF-268
[9] = test system: NCI-H460
[10] = test system: SNB-75
[11] = test system: DU-145
[12] = test system: K562
[13] = test system: OVCAR-5
[14] = test system: HL-60
[15] = test system: OVCAR-8
[16] = test system: CAKI-1
[17] = test system: COLO 205
[18] = test system: MDA-MB-231
[19] = test system: SR
[20] = test system: OVCAR-3

| SMILES | GI50 [1] | GI50 [2] | GI50 [3] | GI50 [4] | GI50 [5] | GI50 [6] | GI50 [7] | GI50 [8] | GI50 [9] | GI50 [10] | GI50 [11] | GI50 [12] | GI50 [13] | GI50 [14] | GI50 [15] | GI50 [16] | GI50 [17] | GI50 [18] | GI50 [19] | GI50 [20] |
| --- | --- | --- | --- | --- | --- | --- | --- | --- | --- | --- | --- | --- | --- | --- | --- | --- | --- | --- | --- | --- |
| O=C(O)c1ccc(S(=O)(=O)c2ccccc2[N+](=O)[O-])cc1 | > 10 µM (inactive) | > 10 µM (inactive) | > 10 µM (inactive) | > 10 µM (inactive) | > 10 µM (inactive) | > 10 µM (inactive) | > 10 µM (inactive) | > 10 µM (inactive) | > 10 µM (inactive) | > 10 µM (inactive) | > 10 µM (inactive) | > 10 µM (inactive) | > 10 µM (inactive) | > 10 µM (inactive) | > 10 µM (inactive) | > 10 µM (inactive) | > 10 µM (inactive) | > 10 µM (inactive) | > 10 µM (inactive) | > 10 µM (inactive) |
| CCCC1CC(=O)NC(=O)C1C(=O)OC(C)(C)C (configuration not stated) | > 100 µM (inactive) | > 100 µM (inactive) | > 100 µM (inactive) | > 100 µM (inactive) | > 100 µM (inactive) | > 100 µM (inactive) | > 100 µM (inactive) | > 100 µM (inactive) | > 100 µM (inactive) | > 100 µM (inactive) | > 100 µM (inactive) | > 100 µM (inactive) | > 100 µM (inactive) | > 100 µM (inactive) | > 100 µM (inactive) | > 100 µM (inactive) | > 100 µM (inactive) | > 100 µM (inactive) | 64.7 µM (inactive) | > 100 µM (inactive) |
| NCCc1ccc2c(c1)C(=O)c1c(O)ccc(O)c1C2=O | 2.51 µM (inactive) | 3.5 µM (inactive) | 2.45 µM (inactive) | 15.2 µM (inactive) | 4.46 µM (inactive) | 3.95 µM (inactive) | 2.82 µM (inactive) | 4.13 µM (inactive) | > 20.7 µM (inactive) | 4.57 µM (inactive) | > 19.8 µM (inactive) | 3.94 µM (inactive) | 5.06 µM (inactive) | 2.17 µM (inactive) | 2.04 µM (inactive) | 4.84 µM (inactive) | 1.68 µM (inactive) | 4.51 µM (inactive) | 3.43 µM (inactive) | 1.69 µM (inactive) |
| COc1ccccc1NCC(=O)Nn1c(C)nc2ccc(S(=O)(=O)Nc3ccccc3OC)cc2c1=O | > 100 µM (inactive) | > 100 µM (inactive) | > 100 µM (inactive) | > 100 µM (inactive) | > 100 µM (inactive) | 65.2 µM (inactive) | 29.7 µM (inactive) | > 100 µM (inactive) | > 100 µM (inactive) | > 100 µM (inactive) | > 100 µM (inactive) | 80.4 µM (inactive) | > 100 µM (inactive) | 47.1 µM (inactive) | > 100 µM (inactive) | > 100 µM (inactive) | > 100 µM (inactive) | > 100 µM (inactive) | 36.5 µM (inactive) | 83.4 µM (inactive) |
| CC1CC[C@@]2(OC1)OC1C[C@H]3[C@@H]4CC[C@H]5CC(OC6OC(CO)C(OC7OC(CO)C(O)C(O)C7OC7OC(CO)C(O)C(O)C7O)C(O)C6O)CCC5(C)[C@H]4CCC3(C)C1[C@@H]2C (some centres not stated) | 2.01 µM (inactive) | 3.89 µM (inactive) | 0.977 µM (active) | 4.31 µM (inactive) | 1.54 µM (inactive) | 0.933 µM (active) | 2.86 µM (inactive) | 2.75 µM (inactive) | 3.08 µM (inactive) | 2.59 µM (inactive) | 0.975 µM (active) | 2.21 µM (inactive) | 2.25 µM (inactive) | 4.97 µM (inactive) | 6.24 µM (inactive) | 3.21 µM (inactive) | 0.955 µM (active) | 0.929 µM (active) | 1.81 µM (inactive) | 1.8 µM (inactive) |
| C#CCSC(C=C=C)P(=O)(OC(C)C)OC(C)C (configuration not stated) | 32.4 µM (inactive) | > 100 µM (inactive) | > 100 µM (inactive) | > 100 µM (inactive) | 42.8 µM (inactive) | 37.4 µM (inactive) | > 100 µM (inactive) | 90.8 µM (inactive) | > 100 µM (inactive) | > 100 µM (inactive) | > 100 µM (inactive) | 23.7 µM (inactive) | > 100 µM (inactive) | 38.1 µM (inactive) | > 100 µM (inactive) | > 100 µM (inactive) | 58.5 µM (inactive) | > 100 µM (inactive) | 39.5 µM (inactive) | > 100 µM (inactive) |
| CN1CCCC(C(=O)OCC(=O)C2(O)CCC3C4CCC5=CC(=O)CCC5(C)C4C(O)CC32C)C1 (configuration not stated) | 8.73 µM (inactive) | 20.5 µM (inactive) | 17.1 µM (inactive) | 18.3 µM (inactive) | 17.9 µM (inactive) | 6.27 µM (inactive) | 10.7 µM (inactive) | 20.9 µM (inactive) | 11.5 µM (inactive) | 4.85 µM (inactive) | 18.7 µM (inactive) | 9.12 µM (inactive) | 18.1 µM (inactive) | 3.69 µM (inactive) | 15 µM (inactive) | 24.2 µM (inactive) | 18 µM (inactive) | 4.32 µM (inactive) | 1.96 µM (inactive) | 17 µM (inactive) |
| CCOc1cc2c(NCCCN(CCO)CCO)ncnc2c(OCC)c1OCC | > 100 µM (inactive) | > 100 µM (inactive) | > 100 µM (inactive) | > 83.2 µM (inactive) | > 100 µM (inactive) | > 100 µM (inactive) | > 100 µM (inactive) | > 100 µM (inactive) | > 100 µM (inactive) | > 74.8 µM (inactive) | > 100 µM (inactive) | > 100 µM (inactive) | > 100 µM (inactive) | > 89.1 µM (inactive) | > 100 µM (inactive) | > 100 µM (inactive) | 69.3 µM (inactive) | > 93.1 µM (inactive) | > 100 µM (inactive) | > 100 µM (inactive) |
| COc1nc2ncc([C@@H](O)[C@H](O)CO)nc2c(=O)[nH]1 | > 100 µM (inactive) |  | > 100 µM (inactive) | > 100 µM (inactive) | > 100 µM (inactive) | > 100 µM (inactive) | > 100 µM (inactive) | > 100 µM (inactive) | > 100 µM (inactive) | > 100 µM (inactive) | > 100 µM (inactive) | > 100 µM (inactive) | > 100 µM (inactive) | 63.2 µM (inactive) | > 100 µM (inactive) | > 100 µM (inactive) | > 100 µM (inactive) | > 100 µM (inactive) | > 100 µM (inactive) | > 100 µM (inactive) |
| O=C(NCCNCCNC(=O)c1cc(-c2ccccc2)nc2ccccc12)c1cc(-c2ccccc2)nc2ccccc12 | 2.37 µM (inactive) | 3.18 µM (inactive) | 4.47 µM (inactive) | 1.98 µM (inactive) | 2.14 µM (inactive) | 1.75 µM (inactive) | 1.67 µM (inactive) | 2.84 µM (inactive) | 1.5 µM (inactive) | 1.92 µM (inactive) | 2.38 µM (inactive) | 2.16 µM (inactive) | 2.17 µM (inactive) | 1.87 µM (inactive) | 2.04 µM (inactive) | 9.79 µM (inactive) | 1.98 µM (inactive) | 2.51 µM (inactive) | 2.57 µM (inactive) | 2.24 µM (inactive) |
| Cc1cc(O)nc2c3c(ccc12)OC(C)(C)C=C3 | 5.98 µM (inactive) | 5.46 µM (inactive) | 14.9 µM (inactive) | > 25.3 µM (inactive) | > 31.6 µM (inactive) | 3.61 µM (inactive) | 2.08 µM (inactive) | 6.7 µM (inactive) | 3.95 µM (inactive) | 5 µM (inactive) | 3.58 µM (inactive) | 4.22 µM (inactive) | 9.62 µM (inactive) | 0.43 µM (active) | 7.59 µM (inactive) | 5.93 µM (inactive) | 2.89 µM (inactive) | 5.78 µM (inactive) | 2.44 µM (inactive) | 4.28 µM (inactive) |
| CC(=O)NC1C(OCc2ccccc2)OC(CO)C(O)C1OC(C)C(=O)NC(C)C(=O)N[C@@H](CCC(=O)OCCCNC1c2ccccc2Nc2cccc([N+](=O)[O-])c21)C(N)=O (some centres not stated) | < 0.01 µM (active) | < 0.01 µM (active) | 0.0135 µM (active) | 0.0123 µM (active) | < 0.01 µM (active) | < 0.01 µM (active) | 0.0152 µM (active) | < 0.01 µM (active) | < 0.01 µM (active) | 0.0135 µM (active) | 0.0314 µM (active) | < 0.01 µM (active) | 0.0223 µM (active) | < 0.0117 µM (active) | < 0.01 µM (active) | < 0.01 µM (active) | < 0.01 µM (active) | 0.0282 µM (active) | < 0.01 µM (active) | < 0.01 µM (active) |
| O=C1NC(=O)C(CCC(=O)c2cccc3ccccc23)C(=O)N1 | > 100 µM (inactive) | > 100 µM (inactive) |  | > 100 µM (inactive) | > 100 µM (inactive) | > 100 µM (inactive) | > 100 µM (inactive) | > 100 µM (inactive) | > 100 µM (inactive) | 26.4 µM (inactive) | > 100 µM (inactive) | > 100 µM (inactive) | > 100 µM (inactive) | > 100 µM (inactive) | > 100 µM (inactive) | > 100 µM (inactive) | > 100 µM (inactive) | > 100 µM (inactive) | 85.3 µM (inactive) | > 100 µM (inactive) |
| COC(=O)c1cc2c(cc1CC(Cc1ccc3c(c1)CCCC3)C(=O)OC)CCCC2 (configuration not stated) | > 100 µM (inactive) | 54.1 µM (inactive) |  | 16.4 µM (inactive) | 49.9 µM (inactive) | 80.9 µM (inactive) | 65.3 µM (inactive) | 29 µM (inactive) | 34 µM (inactive) | 64.4 µM (inactive) | > 100 µM (inactive) | 40.1 µM (inactive) | 68.4 µM (inactive) | 7.45 µM (inactive) | 84.7 µM (inactive) | > 100 µM (inactive) | 33.2 µM (inactive) | 68.4 µM (inactive) | 97.7 µM (inactive) | 44.6 µM (inactive) |
